Results from patent US20160304557A1, “Method for preventing or treating heart diseases by using a composition containing an isolated peptide” (Tunghai University, priority 2014, published 2016).

How the values were obtained:
ANP = test: Western blot of ANP in heart tissue of high-fat diet mice; type: in vivo, C57BL/6 mice; conditions: groups 3 to 5 (5, 10, 25 mg/kg/day intraperitoneally) in comparison of group 2
Procedure: (§1) The male C57BL/6 mice at the age of 6 weeks were divided into 5 groups for 8 mice in each group. […]
(§2) Protein concentration of the extract was determined by Lowry's protein assay method. […]
(§3) The protein extraction of the mice heart tissues from the each group in example 2 were processed by the western blot method in example 3 to observe the expressions of the indicator of heart hypertrophy and heart failure. The results were shown at FIGS. 12 and 13, wherein the tubulin was used for an internal control in FIG. 12 and the expression levels of the ANP and BNP in the mice heart tissues from the each group was calculated basing on the expression level of tubulin in each figures of FIG. 13.

[1] = test system: nuclear factor of activated T-cells C3 (NFTA-C3); test: Western blot of NFTA-C3 in heart tissue of high-fat diet mice; type: in vivo, C57BL/6 mice; conditions: groups 3 to 5 (5, 10, 25 mg/kg/day intraperitoneally) in comparison of group 2
Procedure: as §1, §2
(§4) The protein extraction of the mice heart tissues from the each group in example 2 were processed by the western blot method in example 3 to observe the expressions of nuclear factor of activated T-cells C3 (NFTA-C3) and calcineurin in the mice heart tissues from the each group. The results were shown at FIGS. 4 and 5, wherein the tubulin was used for an internal control in FIG. 4 and the expression levels of NFTA-C3 and calcineurin were calculated basing on the expression level of tubulin in each figure of FIG. 5.

cytochrome C = test: Western blot of cytochrome C in heart tissue of high-fat diet mice; type: in vivo, C57BL/6 mice; conditions: groups 3 to 5 (5, 10, 25 mg/kg/day intraperitoneally) in comparison of group 2
Procedure: as §1, §2
as §4, with “related apoptosis regulatory proteins” for “nuclear factor of activated T-cells C3 (NFTA-C3) and calcineurin”, “2” for “4”, “3,” for “5,”, “related apoptosis regulatory proteins” for “NFTA-C3 and calcineurin”, “3.” for “5.”

p38α protein = test: Western blot of p38α protein in heart tissue of high-fat diet mice; type: in vivo, C57BL/6 mice; conditions: groups 3 to 5 (5, 10, 25 mg/kg/day intraperitoneally) versus group 2
Procedure: (§5) The male C57BL/6 mice at the age of 6 weeks were divided into 5 groups for 8 mice in each group. The each group of mice were feed at 24±2° C. of temperature, humidity of 55±10% and 12/12 light cycle for 8 weeks, wherein the group 1 was control group on a normal diet (PMI Nutrition International, Brentwood, Mo., USA) and injected 0.9% saline intraperitoneally; the group 2 was fed high-fat diet to induce the mice into heart hypertrophy model and injected 0.9% saline intraperitoneally; the group 3 was fed high-fat diet and the peptide of SEQ ID NO.:1 was injected intraperitoneally with the dose of 5 mg/kg/day; the group 4 was fed high-fat diet and the peptide of SEQ ID NO.:1 was injected intraperitoneally with the dose of 10 mg/kg/day; the group 5 was fed high-fat diet and the peptide of SEQ ID NO.:1 was injected intraperitoneally with the dose of 25 mg/kg/day. […]
as §2
(§6) The protein extraction of the mice heart tissues from the each group in example 2 were processed by the western blot method in example 3 to observe the expressions of p38α protein and JNK. The results were shown at FIGS. 8 and 9, wherein the tubulin was used for an internal control in FIG. 8 and the expression levels of p38α protein and JNK were calculated basing on the expression level of tubulin in each figure of FIG. 9.

caspase-3 = test: Western blot of activated caspase-3 in heart tissue of high-fat diet mice; type: in vivo, C57BL/6 mice; conditions: groups 3 to 5 (5, 10, 25 mg/kg/day intraperitoneally) in comparison of group 2
Procedure: as §1, §2
as §6, with “related apoptosis regulatory proteins in the mice heart tissues from the each group.” for “p38α protein and JNK.”, “2” for “8”, “3,” for “9,”, “related apoptosis regulatory proteins” for “p38α protein and JNK”, “3.” for “9.”

[2] = test system: FGF-2, ERK-1, UPA, MMP-2 and MMP-9; test: Western blot of related proteins of cardiac fibrosis pathway in heart tissue of high-fat diet mice; type: in vivo, C57BL/6 mice; conditions: MMP-2, MMP-9, groups 3 to 5 (5, 10, 25 mg/kg/day intraperitoneally) versus group 2
Procedure: as §1, §2
The protein extraction of the mice heart tissues from the each group in example 2 were processed by the western blot method in example 3 to observe the expressions of the related proteins of cardiac fibrosis pathway including: FGF-2, ERK-1, UPA, MMP-2 and MMP-9. The results were shown at FIGS. 10 and 11, wherein the tubulin was used for an internal control in FIG. 10 and the expression levels of FGF-2, ERK-1, UPA, MMP-2 and MMP-9 in the mice heart tissues from the each group was calculated basing on the expression level of tubulin in each figures of FIG. 11.

BNP = test: Western blot of BNP in heart tissue of high-fat diet mice; type: in vivo, C57BL/6 mice; conditions: groups 3 to 5 (5, 10, 25 mg/kg/day intraperitoneally) in comparison of group 2
Procedure: as §1, §2, §3

[3] = test system: STAT-3, IL-6, MEK-5 and ERK-5; test: Western blot of related signal transduction proteins of heart hypertrophy in heart tissue of high-fat diet mice; type: in vivo, C57BL/6 mice; conditions: STAT-3, IL-6, MEK-5, ERK-5, groups 3 to 5 (5, 10, 25 mg/kg/day intraperitoneally) versus group 2
Procedure: as §1, §2
The protein extraction of the mice heart tissues from the each group in example 2 were processed by the western blot method in example 3 to observe the expressions of the related signal transduction proteins of heart hypertrophy including: STAT-3, IL-6, MEK-5 and ERK-5. The results were shown at FIGS. 6 and 7, wherein the tubulin was used for an internal control in FIG. 6 and the expression levels of the related signal transduction proteins of heart hypertrophy in the mice heart tissues from each group was calculated basing on the expression level of tubulin in FIG. 7.

Bcl-2 protein = test: Western blot of Bcl-2 in heart tissue of high-fat diet mice; type: in vivo, C57BL/6 mice; conditions: groups 3 to 5 (5, 10, 25 mg/kg/day intraperitoneally) in comparison of group 2 (high-fat diet, saline)
Procedure: as §1, §2
as §6, with “related apoptosis regulatory proteins in the mice heart tissues from the each group.” for “p38α protein and JNK.”, “2” for “8”, “3,” for “9,”, “related apoptosis regulatory proteins” for “p38α protein and JNK”, “3.” for “9.”

myocardial cells = test: H&E stained section of heart tissues of high-fat diet mice; type: in vivo; conditions: groups 3 and 4 (15 and 25 mg/kg/day intraperitoneally) in comparison with group 2
Procedure: The male C57BL/6 mice at the age of 6 weeks were divided into 5 groups for 8 mice in each group. The each group of mice were feed at 24±2° C. of temperature, humidity of 55±10% and 12/12 light cycle for 8 weeks, wherein the group 1 was control group on a normal diet (PMI Nutrition International, Brentwood, Mo., USA) and injected 0.9% saline intraperitoneally; the group 2 was fed high-fat diet to induce the mice into heart hypertrophy model and injected 0.9% saline intraperitoneally; the group 3 was fed high-fat diet and the peptide of SEQ ID NO.:1 was injected intraperitoneally with the dose of 5 mg/kg/day; the group 4 was fed high-fat diet and the peptide of SEQ ID NO.:1 was injected intraperitoneally with the dose of 10 mg/kg/day; the group 5 was fed high-fat diet and the peptide of SEQ ID NO.:1 was injected intraperitoneally with the dose of 25 mg/kg/day. The injection period of each group of mice was between the third week to the sixth week of feeding period. The high-fat diet contained 60% of energy as fat.
The feeding method was the same with example 1. Mice were divided into 4 groups for feeding at different conditions. The intraperitoneal injection was performed between the third week and the sixth week of the feeding period. […]

JNK = test: Western blot of JNK in heart tissue of high-fat diet mice; type: in vivo, C57BL/6 mice; conditions: groups 3 to 5 (5, 10, 25 mg/kg/day intraperitoneally) versus group 2
Procedure: as §5, §2, §6

calcineurin = test: Western blot of calcineurin in heart tissue of high-fat diet mice; type: in vivo, C57BL/6 mice; conditions: groups 3 to 5 (5, 10, 25 mg/kg/day intraperitoneally) in comparison of group 2
Procedure: as §1, §2, §4

SEQ ID NO.: 1: isolated peptide which amino acid sequence is SEQ ID NO.: 1; extracted from organisms, separated by hydrolysis or chemical synthesis (VHVV)
expression levels of ANP in the heart tissues (ANP): obviously decreased | expression levels of NFTA-C3 in the heart cells [1]: obviously decreased | expression levels of cytochrome C in the heart cell (cytochrome C): obviously decreased | expression levels of p38α protein in the heart cells (p38α protein): significantly lower | expression levels of activated caspase-3 in the heart cell (caspase-3): obviously decreased | related proteins of cardiac fibrosis pathway in mice heart tissues [2]: obviously lower | expression levels of BNP in the heart tissues (BNP): obviously decreased | expression levels of the related signal transduction proteins of heart hypertrophy in the heart tissues [3]: obviously lower | expression levels of Bcl-2 in the heart cell (Bcl-2 protein): obviously increased | arrangement of myocardial cells (H&E stained heart sections) (myocardial cells): more orderly and closely | expression levels of JNK in the heart cells (JNK): significantly lower | expression levels of calcineurin in the heart cells (calcineurin): obviously decreased
